Laboratory results as given in patent EP3628672A1 (priority 2018, dated 2020).

Assays:
[1] = target: T1, purified LasB protein from P. aeruginosa (Pseudomonas aeruginosa, UniProt P14756); experiment: Fluorometric assay to determine Ki (Abz-Ala-Gly-Leu-Ala-p-Nitro-Benzyl-Amide substrate); assay type: biochemical
T1 construct: purchased Merck or Charles River Laboratories
Method in brief: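 Purified P. aeruginosa LasB (10–140 ng/ml) with 250 µM Abz-Ala-Gly-Leu-Ala-p-nitrobenzylamide in 50 mM Tris-HCl pH 7.4, 2.5 mM CaCl2, 0.01% Triton X100, 37 °C; hydrolysis fluorescence (Ex 340/Em 415 nm) followed over 30 min, inhibitor 0.0016–200 µM. Ki = IC50/(1+[S]/Km), Km 214 µM.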

LasB = target: T2, LasB (Pseudomonas aeruginosa, UniProt P14756); experiment: Elastin assay to determine % inhibition (Elastin Congo-Red, dialysed culture supernatant); assay type: biochemical, P. aeruginosa PAO1; conditions: read-out: Elastin hydrolysis % inhibition @ 50 / 25 µM inhibitor concentration
T2 construct: uses as source of enzyme dialysed supernatant from P. aeruginosa PAO1; endogenous in cells; host or cells: P. aeruginosa PAO1 culture supernatant, filtered and dialysed
T2 sequence (P14756 198-498): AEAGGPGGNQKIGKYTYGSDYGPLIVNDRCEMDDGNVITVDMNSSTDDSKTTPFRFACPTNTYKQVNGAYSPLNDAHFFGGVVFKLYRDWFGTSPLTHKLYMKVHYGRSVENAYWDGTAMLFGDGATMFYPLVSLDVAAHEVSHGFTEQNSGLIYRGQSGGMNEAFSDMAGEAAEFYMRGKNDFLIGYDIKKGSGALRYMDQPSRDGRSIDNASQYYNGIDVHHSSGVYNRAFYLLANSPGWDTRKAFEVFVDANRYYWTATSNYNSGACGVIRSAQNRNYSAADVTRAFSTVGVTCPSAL
Procedure: Experiments were therefore conducted (1) to measure the potency of inhibition of compounds of the invention against purified Pseudomonas aeruginosa LasB enzyme and also experiments were conducted (2) to measure the ability of compounds of the invention to inhibit LasB-catalysed elastin degradation. The first assay uses a commercial fluorescent synthetic peptide and purified LasB enzyme. The LasB hydrolysis kinetics are measured allowing the determination of the IC50 and Ki of the inhibitors; the second is a more physiological assay using dialysed Pseudomonas aeruginosa supernatant as source of enzyme, plus its natural substrate Elastin. It is an "end point assay" that determines the percentage of LasB inhibition by each compound for one particular time point and inhibitor concentration. Technical details are described below:
The Elastin assay uses as source of enzyme dialysed supernatant from P. aeruginosa PAO1 and the Elastin Congo-Red as substrate. The natural LasB substrate, elastin, is complexed with the congo-red dye (Elastin Congo-Red, ECR). The elastolysis activity from the culture supernatant will degrade elastin and release the congo-red dye into the supernatant. This red dye release can be measured with a spectrophotometer.
Method: To determine LasB elastase activity and assess compound inhibition, an overnight culture of P. aeruginosa strain PAO1 is diluted in LB medium. After reaching an OD600nm of 0.6, this culture is diluted and incubated for additional 18-24 hours in a shaking incubator. Culture supernatants are recovered by centrifugation and filtrated through a […] filter. These supernatants are dialysed (filtration molecules < 20kDa) into a 50 mM Tris-HCl pH 7.4, 2.5 mM CaCl2 solution at 4°C under agitation for 24 hours. Supernatant dialysed is then mixed volume/volume with the ECR suspension (20 mg/mL of ECR in 100 mM Tris-HCl pH 7.4 buffer supplemented with 1 mM CaCl2) supplemented with Triton X100 (final concentration of 0.01%) in presence of DMSO (positive control) and/or different concentrations of compound (routinely 50 to 1.56 µM). As a negative control, the dialysed supernatant is replaced by Tris-HCl solution (50 mM Tris-HCl pH 7.4, 2.5 mM CaCl2). The mixed reaction is then incubated overnight in a 37°C shaking incubator. The reaction supernatant is recovered by centrifugation and the release of congo-red is measured by its absorbance at 495 nm (OD495nm).
Percentage inhibition is determined using the following equation: ((OD495nmvalue of positive control−OD495nmvalue of negative control)−(OD495nmvalue of treated supernatant−OD495nmvalue of positive control))/(OD495nmvalue of positive control−OD495nmvalue of negative control) × 100. [formula]

T1 sequence (P14756 198-498): as above

Row | SMILES | Ki [1] [nM] | inhibition at 25 µM (LasB) [%]
1 | CN1CCN(C(=O)c2cccc(-c3csc(CNC(=O)C4(CC(=O)O)Cc5ccccc5C4)n3)c2)CC1 [Example 23, 2-[2-[[4-[3-(4-methylpiperazine-1-carbonyl)phenyl]thiazol-2-yl]methylcarbamoyl]indan-2-yl]acetic acid] | 200 to 10000 | 60 to 75
2 | CN1CCN(S(=O)(=O)c2cc(-c3csc(CNC(=O)C4(CC(=O)O)Cc5ccccc5C4)n3)ccc2OCCN2CCOCC2)CC1 [Example 132, 2-[2-[[4-[3-(4-methylpiperazin-1-yl)sulfonyl-4-(2-morpholinoethoxy)phenyl]thiazol-2-yl]methylcarbamoyl]indan-2-yl]acetic acid] | < 50 | > 75
3 | O=C(O)CC1(C(=O)NCc2nc(-c3ccc(OCCCN4CCOCC4)cc3)cs2)Cc2ccccc2C1 [Example 55, 2-[2-[[4-[4-(3-morpholinopropoxy)phenyl]thiazol-2-yl]methylcarbamoyl]indan-2-yl]acetic acid] | 50 to 200 | 60 to 75
4 | Cn1cc(-c2csc(CNC(=O)C3(CC(=O)O)Cc4ccccc4C3)n2)cn1 [Example 89, 2-[2-[[4-(1-methylpyrazol-4-yl)thiazol-2-yl]methylcarbamoyl]indan-2-yl]acetic acid] | 50 to 200 | 60 to 75
5 | COc1cc(OCCN2CCOCC2)ccc1-c1csc(CNC(=O)C2(CC(=O)O)Cc3ccccc3C2)n1 [Example 76, 2-[2-[[4-[2-methoxy-4-(2-morpholinoethoxy)phenyl]thiazol-2-yl]methylcarbamoyl]indan-2-yl]acetic acid] | < 50 | > 75
6 | O=C(O)CC1(C(=O)NCc2nc(-c3ccc(OCc4ccncc4)nc3)cs2)Cc2ccccc2C1 [Example 142, 2-[2-[[4-[6-(4-pyridylmethoxy)-3-pyridyl]thiazol-2-yl]methylcarbamoyl]indan-2-yl]acetic acid] | < 50 | > 75
7 | CN1CCN(C(=O)COc2ccc(-c3csc(CNC(=O)C4(CC(=O)O)Cc5ccccc5C4)n3)cc2)CC1 [Example 46, 2-[2-[[4-[4-[2-(4-methylpiperazin-1-yl)-2-oxo-ethoxy]phenyl]thiazol-2-yl]methylcarbamoyl]indan-2-yl]acetic acid] | 50 to 200 | > 75
8 | CN1CCN(c2cccc(-c3csc(CNC(=O)C4(CC(=O)O)Cc5ccccc5C4)n3)c2)CC1 [Example 28, 2-[2-[[4-[3-(4-methylpiperazin-1-yl)phenyl]thiazol-2-yl]methylcarbamoyl]indan-2-yl]acetic acid] | 200 to 10000 | 60 to 75
9 | C[N+]1(CCc2ccc(-c3csc(CNC(=O)C4(CC(=O)[O-])Cc5ccccc5C4)n3)cn2)CCOCC1 [Example 141, 2-[2-[[4-[6-[2-(4-methylmorpholin-4-ium-4-yl)ethyl]-3-pyridyl]thiazol-2-yl]methylcarbamoyl]indan-2-yl]acetate] | 50 to 200 | 60 to 75
10 | COc1ccc(S(=O)(=O)N2CCC([N+](C)(C)C)CC2)cc1-c1csc(CNC(=O)C2(CC(=O)[O-])Cc3cc(F)c(F)cc3C2)n1 [Example 126, 2-[5,6-difluoro-2-[[4-[2-methoxy-5-[[4-(trimethylammonio)-1-piperidyl]sulfonyl]phenyl]thiazol-2-yl]methylcarbamoyl]indan-2-yl]acetate] | 50 to 200 | 60 to 75
11 | COC1CCN(CCCn2cc(-c3csc(CNC(=O)C4(CC(=O)O)Cc5ccccc5C4)n3)cn2)CC1 [Example 110, 2-[2-[[4-[1-[3-(4-methoxy-1-piperidyl)propyl]pyrazol-4-yl]thiazol-2-yl]methylcarbamoyl]indan-2-yl]acetic acid] | 50 to 200 | 60 to 75
12 | CN1CCN(C(=O)N2CCN(CCCn3cc(-c4csc(CNC(=O)C5(CC(=O)O)Cc6ccccc6C5)n4)cn3)CC2)CC1 [Example 112, 2-[2-[[4-[1-[3-[4-(4-methylpiperazine-1-carbonyl)piperazin-1-yl]propyl]pyrazol-4-yl]thiazol-2-yl]methylcarbamoyl]indan-2-yl]acetic acid] | 50 to 200 | 60 to 75
13 | CN1C[C@@H]2CN(c3ccc(-c4csc(CNC(=O)C5(CC(=O)O)Cc6ccccc6C5)n4)cc3)C[C@@H]2C1 [Example 30, 2-[2-[[4-[4-[(3aS,6aR)-2-methyl-1,3,3a,4,6,6a-hexahydropyrrolo[3,4-c]pyrrol-5-yl]phenyl]thiazol-2-yl]methylcarbamoyl]indan-2-yl]acetic acid] | 200 to 10000 | 10 to 60
14 | CN(C)CC#Cc1ccc(-c2csc(CNC(=O)C3(CC(=O)O)Cc4ccccc4C3)n2)cc1 [Example 37, 2-[2-[[4-[4-[3-(dimethylamino)prop-1-ynyl]phenyl]thiazol-2-yl]methylcarbamoyl]indan-2-yl]acetic acid] | 50 to 200 | 60 to 75
15 | O=C(O)CC1(C(=O)NCc2nc(-c3cccc(O)c3)cs2)Cc2ccccc2C1 [Example 12, 2-[2-[[4-(3-hydroxyphenyl)thiazol-2-yl]methylcarbamoyl]indan-2-yl]acetic acid] | 50 to 200 | 60 to 75
16 | O=C(O)CC1(C(=O)NCc2nc(-c3cnn(CCN4CCOCC4)c3)cs2)Cc2ccccc2C1 [Example 96, 2-[2-[[4-[1-(2-morpholinoethyl)pyrazol-4-yl]thiazol-2-yl]methylcarbamoyl]indan-2-yl]acetic acid] | 50 to 200 | 60 to 75
17 | Cn1ccc(-c2csc(CNC(=O)C3(CC(=O)O)Cc4ccccc4C3)n2)n1 [Example 90, 2-[2-[[4-(1-methylpyrazol-3-yl)thiazol-2-yl]methylcarbamoyl]indan-2-yl]acetic acid] | 200 to 10000 | 60 to 75
18 | O=C(O)CC1(C(=O)NCc2nc(-c3ccncc3)cs2)Cc2ccccc2C1 [Example 95, 2-[2-[[4-(4-pyridyl)thiazol-2-yl]methylcarbamoyl]indan-2-yl]acetic acid] | 200 to 10000 | 60 to 75
19 | O=C(O)CC1(C(=O)NCc2nc(-c3ccccn3)cs2)Cc2ccccc2C1 [Example 9, 2-[2-[[4-(2-pyridyl)thiazol-2-yl]methylcarbamoyl]indan-2-yl]acetic acid] | 200 to 10000 | 60 to 75
20 | CC(=O)N1CCN(CCn2cc(-c3csc(CNC(=O)C4(CC(=O)O)Cc5ccccc5C4)n3)cn2)CC1 [Example 119, 2-[2-[[4-[1-[2-(4-acetylpiperazin-1-yl)ethyl]pyrazol-4-yl]thiazol-2-yl]methylcarbamoyl]indan-2-yl]acetic acid] | 50 to 200 | 60 to 75
21 | C[n+]1ccc(Cn2cc(-c3csc(CNC(=O)C4(CC(=O)[O-])Cc5ccccc5C4)n3)cn2)cc1 [Example 120, 2-[2-[[4-[1-[(1-methylpyridin-1-ium-4-yl)methyl]pyrazol-4-yl]thiazol-2-yl]methylcarbamoyl]indan-2-yl]acetate] | 50 to 200 | 60 to 75
22 | COc1cc(OCCCN2CCOCC2)ccc1-c1csc(CNC(=O)C2(CC(=O)O)Cc3ccccc3C2)n1 [Example 71, 2-[2-[[4-[2-methoxy-4-(3-morpholinopropoxy)phenyl]thiazol-2-yl]methylcarbamoyl]indan-2-yl]acetic acid] | < 50 | > 75
23 | CN1CCN(CCCn2cc(-c3csc(CNC(=O)C4(CC(=O)O)Cc5ccccc5C4)n3)cn2)CC1 [Example 108, 2-[2-[[4-[1-[3-(4-methylpiperazin-1-yl)propyl]pyrazol-4-yl]thiazol-2-yl]methylcarbamoyl]indan-2-yl]acetic acid] | 50 to 200 | 60 to 75
24 | O=C(O)CC1(C(=O)NCc2nc(-c3ccc(Cl)cc3)cs2)Cc2ccccc2C1 [Example 7, 2-[2-[[4-(4-chlorophenyl)thiazol-2-yl]methylcarbamoyl]indan-2-yl]acetic acid] | 50 to 200 | 60 to 75
